Values after ≈ are worked out from the molar mass of the structure shown.
Tests used:
[1] = system: Mycobacterium tuberculosis; assay: Antitubercular activity against Mycobacterium tuberculosis H37Rv assessed as inhibition of bacterial growth incubated for […] by REMA assay; format: functional
[2] = target: T1, Thioredoxin reductase (Mycobacterium tuberculosis) (UniProt P9WHH1); assay: Inhibition of Mycobacterium tuberculosis Thioredoxin reductase assessed as inhibition
T1 sequence (whole entry): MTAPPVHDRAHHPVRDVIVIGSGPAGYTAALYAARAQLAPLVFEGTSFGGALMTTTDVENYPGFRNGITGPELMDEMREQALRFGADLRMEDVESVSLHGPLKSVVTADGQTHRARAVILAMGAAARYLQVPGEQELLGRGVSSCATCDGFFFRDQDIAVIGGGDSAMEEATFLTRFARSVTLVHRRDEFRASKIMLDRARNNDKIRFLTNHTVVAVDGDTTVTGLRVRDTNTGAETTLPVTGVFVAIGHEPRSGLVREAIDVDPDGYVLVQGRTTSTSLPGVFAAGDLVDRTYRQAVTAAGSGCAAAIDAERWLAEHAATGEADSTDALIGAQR

[3] = system: Mycobacterium tuberculosis; assay: Antitubercular activity against Mycobacterium tuberculosis assessed as bacterial growth inhibition by CLSI based broth dilution method; format: functional
[4] = system: Mycobacterium tuberculosis; assay: Antitubercular activity against Mycobacterium tuberculosis H37Rv assessed as inhibition of bacterial growth incubated for 5 days by turbidity-based growth inhibition assay; format: functional; details: 120 h, time 5 day
[5] = system: Mycobacterium tuberculosis; assay: Antitubercular activity against Mycobacterium tuberculosis H37Rv assessed as inhibition of bacterial growth incubated for 7 days by REMA assay; format: functional; details: 168 h, time 7 day
[6] = system: Mycobacterium tuberculosis; assay: Antitubercular activity against Mycobacterium tuberculosis H37Rv assessed as inhibition of bacterial growth; format: functional
[7] = system: Mycobacterium tuberculosis; assay: Antitubercular activity against Mycobacterium tuberculosis H37Ra assessed as inhibition of bacterial growth incubated for 28 days by microbroth dilution method; format: functional; details: 672 h, time 28 day
[8] = system: Mycobacterium tuberculosis; assay: Antitubercular activity against Mycobacterium tuberculosis assessed as bacterial growth inhibition; format: functional
[9] = target: T2, Mycosin-1 (Mycobacterium tuberculosis (strain ATCC 25618 / H37Rv)) (UniProt O05461); assay: Inhibition of Mycobacterium tuberculosis MycP1 assessed as inhibition rate at 150 uM relative to control
T2 sequence (whole entry): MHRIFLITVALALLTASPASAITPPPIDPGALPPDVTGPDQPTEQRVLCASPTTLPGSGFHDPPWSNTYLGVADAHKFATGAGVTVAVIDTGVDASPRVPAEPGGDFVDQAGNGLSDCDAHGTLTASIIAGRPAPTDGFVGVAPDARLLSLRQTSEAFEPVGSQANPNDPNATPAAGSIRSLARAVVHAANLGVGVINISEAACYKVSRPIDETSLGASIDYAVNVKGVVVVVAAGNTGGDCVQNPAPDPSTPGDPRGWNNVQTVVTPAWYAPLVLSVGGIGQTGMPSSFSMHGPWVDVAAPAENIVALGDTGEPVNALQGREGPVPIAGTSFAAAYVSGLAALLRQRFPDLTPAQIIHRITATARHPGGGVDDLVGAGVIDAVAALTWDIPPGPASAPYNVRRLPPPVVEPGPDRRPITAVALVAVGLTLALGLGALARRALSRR

[10] = system: Mycobacterium tuberculosis; assay: Antitubercular activity against Mycobacterium tuberculosis H37Rv infected in ip dosed BALB/c mouse assessed as inhibition of bacterial growth; format: functional
[11] = system: Mycobacterium tuberculosis; assay: Antitubercular activity against Mycobacterium tuberculosis H37Rv assessed as inhibition of bacterial growth incubated for 5 days by REMA assay; format: functional; details: 120 h, time 5 day
[12] = system: Mycobacterium tuberculosis; assay: Antitubercular activity against Mycobacterium tuberculosis H37Rv assessed as inhibition of bacterial growth incubated for 2 days by resazurin-based assay; format: functional; details: 48 h, time 2 day
[13] = system: Mycobacterium tuberculosis; assay: Antitubercular activity against Mycobacterium tuberculosis H37Rv assessed as inhibition of bacterial growth by broth microdilution method; format: functional
[14] = system: Mycobacterium tuberculosis; assay: Antibacterial activity against Mycobacterium tuberculosis H37Rv assessed as fold increase in sensitivity in presence of copper by REMA assay; format: functional
[15] = system: Mycobacterium tuberculosis; assay: Antitubercular activity against Mycobacterium tuberculosis H37Rv assessed as inhibition of bacterial growth incubated for 24 hrs by checkerboard assay; format: functional
[16] = system: Mycobacterium tuberculosis; assay: Antitubercular activity against Mycobacterium tuberculosis H37Rv […] THP-1 cells incubated for 48 hrs by microplate Alamar blue assay; format: functional
[17] = system: Mycobacterium tuberculosis; assay: Antitubercular activity against Mycobacterium tuberculosis H37Rv […] THP-1 cells in presence of rifampin; format: functional, organism-based
[18] = system: Mycobacterium tuberculosis; assay: Antitubercular activity against Mycobacterium tuberculosis H37Rv […] THP-1 cells in presence of isoniazid; format: functional, organism-based
[19] = system: Mycobacterium tuberculosis; assay: Antitubercular activity against Mycobacterium tuberculosis H37Rv […] THP-1 cells in presence of pyrazinamide; format: functional, organism-based
[20] = system: Mycobacterium tuberculosis; assay: Antitubercular activity against Mycobacterium tuberculosis H37Rv assessed as inhibition of bacterial growth by incubated for 7 days by resazurin dye based broth microdilution method; format: functional; details: 168 h, time 7 day

Compound: CCCCCC/C=C/C=C/CCCCCCCC(=O)O
- MIC [1]: 200 µg/mL (≈ 713 µM)
- MIC [2]: < 20 µM

Compound: CSC1=C(C(=O)[O-])N2C(=O)[C@H]([C@@H](C)O)[C@H]2[C@H]1C.[Na+]
- MIC90 [3]: 0.25 µg/mL

Compound: CCCOC(=O)CSC1=C(C(=O)O)N2C(=O)[C@H]([C@@H](C)O)[C@H]2[C@H]1C
- MIC90 [3]: 1 µg/mL (≈ 2.91 µM)

Compound: O=C(N[C@@H](Cc1ccccn1)C(=O)N[C@@H](CCc1ccccc1)B(O)O)c1cnccn1
- MIC50 [4]: 2.5 µM (≈ 1.08 µg/mL)

Compound: CC(C)(C)c1ccc(-c2nn(-c3ccccc3)cc2Cn2ccnc2)cc1
- MIC [5]: 1.56 µg/mL (≈ 4.38 µM)

Compound: CC(C)Cc1ccc(-c2nn(-c3ccccc3)cc2Cn2ccnc2)cc1
- MIC [5]: 1.56 µg/mL (≈ 4.38 µM)

Compound: CC(C)CC(N)C(=O)NCC(=O)NC[C@H](C)B1OC2CC3CC(C3(C)C)[C@@]2(C)O1.Cl (some centres not stated)
- MIC [6]: ≤ 5 µg/mL

Compound: CC(C)C[C@H](N)C(=O)NCC(=O)NC[C@H](Cc1ccccc1)B(O)O
- MIC [6]: ≤ 5 µg/mL

Compound: C[C@@H](CNC(=O)CNC(=O)C(N)CC(=O)O)B1OC2CC3CC(C3(C)C)[C@@]2(C)O1.Cl (some centres not stated)
- MIC [6]: ≤ 5 µg/mL

Compound: Nc1nc(N)c(-c2ccc(C(=O)Nc3cccc(OC(F)(F)F)c3)cc2)c(OCc2cncs2)n1
- MIC [7]: 6.25 µg/mL (≈ 12.4 µM)

Compound: C[C@@H](O)[C@H]1C(=O)N2C(C(=O)[O-])=C(SCC(=O)OC3CCCCC3)[C@H](C)[C@H]12.[Na+]
- MIC90 [3]: 1 µg/mL

Compound: C=CCNC(=S)NNC(=S)NCC=C
- MIC [8]: 0.5 µg/mL (≈ 2.17 µM)

Compound: CC(C)C[C@@H](N)C(=O)NCC(=O)NC[C@H](Cc1ccccc1)B(O)O.Cl
- MIC [6]: ≤ 5 µg/mL

Compound: C=C1C[C@@]23CCC4[C@H](C(=O)O)CCC[C@@]4(C)[C@@H]2CC[C@@H]1C3 (some centres not stated)
- MIC [2]: 0.5 µg/mL

Compound: CCCCC/C=C\C=C\CCCCCCCCC(=O)O
- MIC [2]: < 20 µg/mL

Compound: CCCCCC/C=C/C=C\CCCCCCCC(=O)O
- MIC [2]: < 20 µg/mL

Compound: N=C(N)c1ccc(/N=N/Nc2ccc(C(=N)N)cc2)cc1
- inhibition [9]: 58%

Compound: C[C@@H](O)[C@H]1C(=O)N2C(C(=O)O)=C(S[C@@H]3CN[C@H](CNS(N)(=O)=O)C3)[C@H](C)[C@H]12 (mixture of isomers) [DORIPENEM]
- MIC90 [3]: 1 µg/mL

Compound: O[C@@H](c1cc(C(F)(F)F)nc2c(C(F)(F)F)cccc12)[C@H]1CCCCN1 [(S,R)-MEFLOQUINE]
- MIC [5]: 5 µg/mL (≈ 13.2 µM)

Compound: C[C@H]1O[C@H](O[C@H]2[C@H](O)[C@@H](O)[C@@H](O[C@H]3[C@H](O)[C@@H](O)C(O)O[C@@H]3CO)O[C@@H]2CO)[C@H](O)[C@@H](O)[C@@H]1N[C@H]1C=C(CO)[C@@H](O)[C@H](O)[C@H]1O (some centres not stated) [ACARBOSE]
- MIC [8]: 0.05 µg/mL (≈ 0.0774 µM)

Compound: CCCCC(CC)CNC(=N)NC(=N)NCCCCCCNC(=N)NC(=N)NCC(CC)CCCC.Cl.Cl (configuration not stated) [ALEXIDINE DIHYDROCHLORIDE]
- MIC99 [10]: 0.05 µg/mL

Compound: C[C@@H]1CC[C@H]2[C@@H](C)C(=O)O[C@@H]3O[C@@]4(C)CC[C@@H]1[C@]32OO4 [ARTEMISININ]
- MIC [11]: 75 µg/mL (≈ 266 µM)

Compound: COc1nc2ccc(Br)cc2cc1[C@@H](c1ccccc1)[C@@](O)(CCN(C)C)c1cccc2ccccc12 [BEDAQUILINE]
- MIC [12]: 0.06 µg/mL (≈ 0.108 µM)

Compound: C[C@@H](O)[C@H]1C(=O)N2C(C(=O)[O-])=C(SC3Cn4cnc[n+]4C3)[C@H](C)[C@H]12 (some centres not stated) [BIAPENEM]
- MIC90 [13]: 2.5 µg/mL (≈ 7.13 µM)

Compound: CC(C)C[C@H](NC(=O)[C@H](Cc1ccccc1)NC(=O)c1cnccn1)B(O)O [BORTEZOMIB]
- MIC50 [4]: 4.3 µM (≈ 1.65 µg/mL)

Compound: O=c1c2ccccc2[se]n1-c1ccccc1 [EBSELEN]
- MIC50 [6]: 12.5 µg/mL (≈ 45.6 µM)

Compound: CN(NC(=O)CC(=O)NN(C)C(=S)c1ccccc1)C(=S)c1ccccc1 [ELESCLOMOL]
- fold change (FC) [14]: >65
- MIC99 [15]: 4 µg/mL

Compound: NNC(=O)c1ccncc1 [ISONIAZID]
- MIC [8]: 0.01 µg/mL (≈ 0.0729 µM)

Compound: CC/C=C\C/C=C\C/C=C\CCCCCCCC(=O)O [LINOLENIC ACID]
- MIC [8]: > 320 µg/mL
- MIC [1]: 200 µg/mL (≈ 718 µM)

Compound: O=C(Nc1cccc2c(=O)cc(-c3nnn[nH]3)oc12)c1ccc(OCCCCc2ccccc2)cc1 [PRANLUKAST]
- MIC90 [16]: 5 µg/mL (≈ 10.4 µM)

Compound: CC[C@H](C)C(=O)O[C@H]1C[C@H](O)C=C2C=C[C@H](C)[C@H](CC[C@@H](O)C[C@@H](O)CC(=O)O)[C@H]21 [PRAVASTATIN]
- EC50 [17]: 7.8 µM
- EC50 [18]: 7.8 µM
- EC50 [19]: 7.8 µM

Compound: NC(=O)c1cnccn1 [PYRAZINAMIDE]
- MIC [8]: 0.01 µg/mL (≈ 0.0812 µM)

Compound: COc1ccc2nc3cc(Cl)ccc3c(Nc3cc(CN4CCCC4)c(O)c(CN4CCCC4)c3)c2n1 [PYRONARIDINE]
- MIC [20]: 5 µg/mL (≈ 9.65 µM)

Compound: CO[C@H]1/C=C/O[C@@]2(C)Oc3c(C)c(O)c4c(O)c(c(/C=N/N5CCN(C)CC5)c(O)c4c3C2=O)NC(=O)/C(C)=C\C=C\[C@H](C)[C@H](O)[C@@H](C)[C@@H](O)[C@@H](C)[C@H](OC(C)=O)[C@@H]1C [RIFAMPIN]
- MIC [8]: 0.01 µg/mL (≈ 0.0122 µM)

Compound: CCC(C)(C)C(=O)O[C@H]1C[C@@H](C)C=C2C=C[C@H](C)[C@H](CC[C@@H]3C[C@@H](O)CC(=O)O3)[C@H]21 [SIMVASTATIN]
- MIC [6]: > 320 µM

Compound: C[C@@H](O)[C@H]1C(=O)N2C(C(=O)O)=C(SC3CN(C4=NCCS4)C3)[C@H](C)[C@H]12 [TEBIPENEM]
- MIC90 [13]: 1.25 µg/mL (≈ 3.26 µM)

Compound: COc1ccc(CCN(C)CCCC(C#N)(c2ccc(OC)c(OC)c2)C(C)C)cc1OC (configuration not stated) [VERAPAMIL]
- MIC [6]: 125 µg/mL
